From patent US8044025B2 (Research Development Foundation, priority 2000, dated 2011)
pKi: −log10 of the molar value. Entries after “also recorded” stand apart in the source; their conditions may differ. No end group written: not given here.

Assays:
[1] = Telemetric gross motor activity after icv peptide; type: in vivo, rat; conditions: 1 μg icv, rats, telemetry
Excerpt: (§1) To identify cell groups responsive to central Ucn II administration, and to evaluate the extent to which these may conform to sites of CRF-R2 expression, the induced expression of the immediate-early gene product, Fos, in response; to icv peptide administration was monitored. Adult male Sprague-Dawley rats (250-300 g at start of experiments) and C57 BL/6 mice (25-40 g) were housed in a colony room on a 12:12 light:dark cycle, and with free access to food and water prior to experimentation. For intracerebroventricular (icv) injections, rats were anesthetized with ketamine/xylazine/acepromazine and stereotaxically implanted with a 26 ga guide cannula terminating in the lateral ventricle. For intravenous (iv) administration of peptides, animals were fitted with indwelling jugular venous catheters. Rats that received icv injections were also implanted intra-abdominally with a transmitter to remotely monitor gross activity levels and body temperature (Mini-Mitter). After surgery, animals were allowed to recover for 7 days prior to any experimentation, during which time they were handled daily. […]
In these same subjects, gross motor activity and body temperature were monitored telemetrically (FIG. 10B). […] Core body temperature was also recorded, with each peptide provoking comparably mild (0.5-1° C.) and transient (2 hr) hypothermic responses (data not shown).

[2] = Nocturnal food intake after icv peptide; type: in vivo, rat; conditions: 1 μg icv, rats
Excerpt: as §1, with “catheters.” for “catheters. Rats that received icv injections were also implanted intra-abdominally with a transmitter to remotely monitor gross activity levels and body temperature (Mini-Mitter). After surgery, animals were allowed to recover for 7 days prior to any experimentation, during which time they were handled daily.”
To monitor induced patterns of Fos expression, rats were injected at 10 am, either icv or iv with synthetic Ucn II (1, 5 or 10 μg/animal in 2 μl saline for icv injections or 200 μl for iv administration), or vehicle alone, and perfused two hours later. […] Consumption was then measured hourly for 6 hrs and at 12 hrs. Data were analyzed using repeated measures analysis of variance (ANOVA), with the Bonferoni correction for multiple comparisons applied as warranted. […]

[3] = Food intake after icv hURP; type: in vivo, rat; conditions: 5 μg icv
Protocol: The effect of human urocortin-related peptide on appetite was also examined in rats. Cannulas for injection of human urocortin-related peptide were surgically into the right lateral ventricle and the animals were allowed to recover for seven days. During the time, the animals were handled daily to acclimatize the animals to the injection procedure. On the day of injection, the animals were injected with either 5 μl of saline or 5 μl of 1 μg/μl human urocortin-related peptide in saline. The amount of food eaten by each animal was recorded every hour for six hours and at fourteen hours.

CRF-R2 = biological target: T1, CRF-R2 (Mus musculus, UniProt Q60748); test: Accumulation of intracellular cAMP in stably transfected CHO cells; type: cell-based; conditions: peptides 20 min at 37° C.
T1 construct: expressed in transfected cells; host or cells: CHO cells, stably transfected
Protocol: (§2) The values were determined from 3-6 independent experiments using stably transfected CHO cells or their membranes for each test peptide. EC50 and Ki values were determined using Prism software. Their log10 values were averaged (γ). The average EC50 or Ki was taken to be 10^γ. The standard deviation of the log10 values was calculated (σ). The ranges given were taken to be: [(10^γ)10^σ or 10^γ/10^σ].
(§3) This significant selectivity for the type 2 receptor was seen also in receptor activation as measured by accumulation of intracellular cAMP. Stably transfected CHO cells (cultured in DMEM/10% FBS) were plated into 48-well tissue culture dishes (Costar) and allowed to recover for 24 hours. The medium was changed to DMEM/0.1% FBS at least two hours before treatment. The cells were preincubated for 30 min with 0.1 mM 3-isobutyl-1-methylxanthine and then exposed to peptides for 20 min at 37° C. Intracellular cAMP was extracted and measured in duplicate from triplicate wells using a RIA kit (Biomedical Technologies). […] The extremely low affinity of Ucn II for CRF-R1 precluded a determination of its efficacy on this receptor.

CRFR1 [4] = biological target: T2, CRFR1 (Homo sapiens, UniProt P34998); test: as above; type: cell-based; conditions: peptides 20 min at 37° C.
T2 construct: expressed in transfected cells; host or cells: CHO cells, stably transfected
T2 sequence (P34998 24-415): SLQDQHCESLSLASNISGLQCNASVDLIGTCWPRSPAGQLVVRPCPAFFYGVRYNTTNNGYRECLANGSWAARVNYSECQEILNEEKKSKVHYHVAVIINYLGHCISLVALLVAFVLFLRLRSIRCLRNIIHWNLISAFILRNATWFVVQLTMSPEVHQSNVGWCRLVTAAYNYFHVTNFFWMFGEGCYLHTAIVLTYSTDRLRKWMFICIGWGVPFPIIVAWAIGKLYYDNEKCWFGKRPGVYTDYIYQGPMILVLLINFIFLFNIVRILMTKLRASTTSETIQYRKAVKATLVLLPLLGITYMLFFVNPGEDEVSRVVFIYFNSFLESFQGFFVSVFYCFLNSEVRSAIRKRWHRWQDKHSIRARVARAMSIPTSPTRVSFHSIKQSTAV
Protocol: as §2, §3

Fos expression = test: hURP-stimulated Fos expression in rat brain; type: in vivo; conditions: 5 μg icv, rats sacrificed two hours later
Protocol: Activation of central stress-related cells groups by human urocortin-related peptide was examined by detection of the Fos gene product in the cells following injection with human urocortin-related peptide. Rats were implanted with guide cannulae in a lateral cerebral ventricle seven days prior to experimentation. On the day of testing, the rats were injected with 5 μg synthetic human urocortin-related peptide in 5 μl of sterile saline. The rats were sacrificed two hours later and slides of various brain sections were prepared. The slides were stained by immunoperoxidase localization of Fos-immunoreactivity using a polyclonal serum raised in rabbit against residues 3-16 of the human Fos protein.

[5] = system: rat anterior pituitary cells; test: ACTH secretion from primary rat anterior pituitary cells; type: cell-based; conditions: primary cultures of rat anterior pituitary cells
Protocol: Secreted ACTH was measured using a kit (Nichols Institute Diagnostics).
For pituitary actions, ACTH secretion response to human urocortin-related peptide was measured in primary cultures of rat anterior pituitary cells as described (30). ACTH levels were determined using the ACTH immunoassay kit from Nichols Institute Diagnostics. The rat anterior pituitary cells were treated with either rat urocortin or human urocortin-related peptide and the level of secreted ACTH was measured, using a kit (Nichols Institute Diagnostics).

[6] = Body temperature after icv hURP; type: in vivo, rat; conditions: 5 μg icv, monitored twelve hours
Excerpt: The effect of human urocortin-related peptide on the body temperature of rats was examined. Cannulas for injection of human urocortin-related peptide were surgically into the right lateral ventricle. Telemeters for the continuous unobtrusive analysis of body temperature were implanted intraabdominally. The animals were allowed a post-surgical recovery period of seven days. During the time, the animals were handled daily to acclimatize the animals to the injection procedure. On the day of injection, baseline temperature was for recorded for three hours. At 6:00 p.m. (the onset of lights out) the animals were injected with either 5 μl of saline or 5 μl of 1 μg/μl human urocortin-related peptide in saline. Body temperature was monitored every five minutes for twelve hours.

CRFR1 [7] = biological target: T2, CRFR1; test: Radioreceptor assay, displacement of 125I-[Tyr0,Glu1,Nle17]-sauvagine, CHO cell membranes (Example 4); conditions: 3-6 experiments, range from SD of log10 values, read-out: CRF-R1 Avg. Ki (nM) (Binding)
Protocol: (§4) The affinity of Ucn II to the CRF-R1 and CRF-R2 receptors was evaluated using a radioreceptor assay. Crude membrane fractions were prepared from CHO cells stably expressing either cloned CRF-R1 or CRF-R2β. Test peptides and the radioligand, ^125I-[Tyr^0, Glu^1, Nle^17]-sauvagine, were diluted in assay buffer (20 mM HEPES, 2 mM EGTA, 0.1% BSA, 10% sucrose, pH 7.6) and combined with the receptor membrane preparations in MAGV microtiter plates (Millipore) pre-coated with 0.1% polyethylene imine. The reaction mixture was incubated for 90 min at room temperature followed by rapid washing twice with assay buffer and filtration. The radioligand complex was quantified by gamma radiation counting. Inhibitory binding constants were determined using Prism software.
as §2

CRF-R2β = biological target: T3, CRF-R2β (Mus musculus, UniProt Q60748); test: as above; conditions: 3-6 experiments, range from SD of log10 values, read-out: CRF-R2 Avg. Ki (nM) (Binding)
T3 construct: expressed in transfected cells; host or cells: CHO cells, stably transfected
Protocol: as §4, §2

[8] = Gross motor activity after icv hURP; type: in vivo, rat; conditions: 5 μg icv, counts over four hours
Excerpt: To determine if human urocortin-related peptide plays a role in the generation of stress response, the effect of human urocortin-related peptide on the gross motor activity of rats was examined. Cannulas were surgically into the right lateral ventricle while telemeters were implanted intraabdominally to allow for continuous monitoring of gross motor activity. The animals were allowed a post-surgical recovery period of seven days. During the time, the animals were handled daily to acclimatize the animals to the injection procedure. On the day of injection, baseline activity was for recorded for four hours. At 6:00 p.m., which was the onset of lights out, the animals received an injection of either 5 μl of saline or 5 μl of saline containing a total of 5 μg of human urocortin-related peptide. Activity counts were summated over a four hour time period.

CRFR2β = test: Displacement of 125I-Sauvagine binding, CHO membranes (Example 5); conditions: CRF-R2β versus CRF-R1
Protocol: (§5) FIGS. 5A and 5B show the human urocortin-related peptide mediated displacement of ^125I-Sauvagine binding to CRFR1 and CRFR2β, respectively. The affinities of Ucn and URP peptides for CRFR1 and CRFR2β_stably expressed in CHO cells were determined by the competitive displacement of the ^125I-Sauvagine.
(§6) Membranes were prepared as described above (29). Binding was performed in 96-well 0.2 μm Durapore plates using the vacuum filtration multiscreen assay system (Millipore). […] Plates were incubated for 1 hour at room temperature, vacuum-filtered, washed twice with binding buffer, and allowed to dry. Individual filters were punched out and counted using a gamma counter.

CRFR1 [9] = biological target: T2, CRFR1; test: as above
Protocol: as §5, §6

T3 sequence (Q60748 27-431 isoform Q60748-2 limits assumed): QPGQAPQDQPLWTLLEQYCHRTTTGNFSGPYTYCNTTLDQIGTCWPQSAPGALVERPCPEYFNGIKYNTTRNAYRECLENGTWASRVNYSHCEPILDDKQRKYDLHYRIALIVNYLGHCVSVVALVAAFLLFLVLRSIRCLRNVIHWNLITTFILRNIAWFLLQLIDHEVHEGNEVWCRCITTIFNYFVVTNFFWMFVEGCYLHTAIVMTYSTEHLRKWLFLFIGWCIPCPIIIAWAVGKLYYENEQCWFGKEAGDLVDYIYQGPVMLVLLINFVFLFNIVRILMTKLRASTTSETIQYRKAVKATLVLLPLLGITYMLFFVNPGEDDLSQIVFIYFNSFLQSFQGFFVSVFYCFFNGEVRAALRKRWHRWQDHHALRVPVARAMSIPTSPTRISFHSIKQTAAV
T1 sequence (Q60748 27-431 isoform Q60748-2 limits assumed): as above

Substance	Gross motor activity versus vehicle [1]	Degree of suppression of food intake over the 12 hr interval ([2]; nocturnal phase)	Time post-injection at which food intake is significantly less than saline controls [2]	Total food consumed versus control ([3]; over fourteen hours)	Food consumed during each time period versus control ([3]; per time period)	EC50 (CRF-R2)	EC50 (CRFR1 [4])	Fos-immunoreactivity in central stress-related cell groups (Fos expression)	Stimulation of ACTH secretion relative to urocortin ([5]; listed as Human urocortin-related peptide)	Stimulation of ACTH secretion relative to urocortin ([5]; listed as human urocortin-related peptide)	Body temperature versus saline controls [6]	Ki (CRFR1 [7])	Ki (CRF-R2β)	Gross motor activity versus saline controls [8]	Specificity for CRF type II receptor relative to urocortin (CRFR2β)	pKi (CRFR1 [9]; Example 5, FIG. 5, CHO cells, read-out: Disassociation constant (Ki) for CRF-R1)	pKi (CRFR1 [9]; synthesized peptide, as stated in the Summary, read-out: Ki for CRF-R1 (summary statement))
CRF: 41-amino acid peptide initiating pituitary-adrenal responses to stress; R1-selective agonist (SEEPPISLDLTFHLLREVLEMARAEQLAQQAHSNRKLMEII; ends and bridges not checked; UniProt P06850 154-194, looked up)	significantly more active than vehicle-treated rats; also recorded: significantly elevated	30%	4 h	–	–	–	–	–	–	–	–	–	–	–	–	–	–
IVLSLDVPIGLLQILLEQARARAAREQATTNARILARVGHC-NH2 [URP (human)]	–	–	–	ate significantly less food than control animals	especially ate less food during the first and third hours after injection as well as during the final eight hours of the experiment	0.42 nM	> 100 nM	Fos-immunoreactivity was detected	significantly lower potency compared to urocortin or CRF	less sensitive to human urocortin-related peptide than to urocortin	lower body temperatures both immediately and at seven hours after injection	> 100 nM	0.5 nM	No significant difference in gross motor activity	much more specific for the corticotropin releasing factor type II receptor than urocortin	7.11	7.15
